Measured values taken from US20250186369A1, “COMPOUNDS, COMPOSITIONS, AND METHODS FOR TREATING, AMELIORATING, AND/OR PRVENTING COCAINE USE DISORDER” (Drexel University, priority 2022, published 2025).

Assays:
D2 receptor = target: T1, D2 receptor (Homo sapiens, UniProt P14416); experiment: ERK1/2 MAPK activation assay (phosphorylation immunoblot), D2 receptor; type: cell-based; conditions: 1 μM, 2 min, CHO-D2R (or HEK-D2R) cells
T1 construct: expressed in transfected cells; host or cells: CHO-D2R (or HEK-D2R) cells
T1 sequence (P14416 whole entry): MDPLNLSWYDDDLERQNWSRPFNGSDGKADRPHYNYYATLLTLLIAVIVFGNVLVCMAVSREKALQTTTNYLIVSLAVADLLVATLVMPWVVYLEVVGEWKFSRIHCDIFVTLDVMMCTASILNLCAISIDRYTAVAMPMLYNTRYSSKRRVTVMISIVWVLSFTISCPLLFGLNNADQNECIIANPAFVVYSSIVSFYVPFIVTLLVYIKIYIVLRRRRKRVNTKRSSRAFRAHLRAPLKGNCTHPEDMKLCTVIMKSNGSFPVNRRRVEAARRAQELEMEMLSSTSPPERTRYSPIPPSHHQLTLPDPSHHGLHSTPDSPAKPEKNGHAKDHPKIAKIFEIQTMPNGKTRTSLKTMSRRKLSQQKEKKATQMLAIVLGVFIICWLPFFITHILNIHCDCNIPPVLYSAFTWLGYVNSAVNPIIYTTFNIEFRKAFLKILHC
Method: (§1) Selected compounds of the disclosure, as well as dopamine (DA) and PD128907 [a commercially available dopamine D2/D3 agonist; (4aR,10bR)-3,4a,4,10b-tetrahydro-4-propyl-2H,5H-[1]benzopyrano-[4,3-b]-1,4-oxazin-9-ol], were tested in an established ERK1/2 MAPK activation assay for dopamine D2 or D3 agonist activity. The results of these side-by-side tests, comprising immunoblot analysis of phosphorylated ERKT/2 MAPK, are illustrated in FIGS. 9-10.
(§2) Functional screening was conducted with vehicle or test compounds using ERK1/2 phosphorylation as endpoint as described herein. 0.4×10^6 CHO-D3R (or HEK-D3R) and CHO-D2R (or HEK-D2R) cells were seeded in 6-well plates and cultured in 3 ml DMEM complete growth medium for 48 h. […]
(§3) Cell lysates were assayed or protein content with DC Protein Assay Kit II (Bio-Rad). […] Total p44/42 MAPK levels in the same blots were also determined with rabbit anti-p44/42 MAPK monoclonal or polyclonal antibody (1:5000, Cell Signaling Technology) after stripping the blots of the same PVDF membrance. Chemiluminescence detection was performed using the SuperSignal West Dura Extended Duration Substrate detection kit (Thermo Scientific, Rockford, IL) and phosphorylated or total ERK1/2 MAPK immunoblots were quantified by densitometry with ImageQuant LAS4000 (GE Healthcare Bio-Sciences, Pittsburgh, PA). […]

D3 receptor = target: T2, D3 receptor (Homo sapiens, UniProt P35462); experiment: ERK1/2 MAPK activation assay (phosphorylation immunoblot), D3 receptor; type: cell-based; conditions: 1 μM, 2 min, CHO-D3R (or HEK-D3R) cells
T2 construct: expressed in transfected cells; host or cells: CHO-D3R (or HEK-D3R) cells
T2 sequence (P35462 whole entry): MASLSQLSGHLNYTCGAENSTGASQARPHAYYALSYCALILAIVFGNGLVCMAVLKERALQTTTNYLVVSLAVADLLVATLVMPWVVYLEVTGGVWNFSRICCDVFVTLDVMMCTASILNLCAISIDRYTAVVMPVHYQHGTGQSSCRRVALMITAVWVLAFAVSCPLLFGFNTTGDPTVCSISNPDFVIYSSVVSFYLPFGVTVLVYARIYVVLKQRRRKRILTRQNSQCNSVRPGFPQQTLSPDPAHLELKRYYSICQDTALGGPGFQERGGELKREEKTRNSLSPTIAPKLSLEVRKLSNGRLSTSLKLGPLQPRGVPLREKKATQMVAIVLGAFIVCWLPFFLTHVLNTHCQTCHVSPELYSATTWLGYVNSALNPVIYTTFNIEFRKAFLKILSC
Method: as §1, §2, §3

[1] = test system: dopamine transporter (DAT); experiment: Fast scan cyclic voltammetry of dopamine release and uptake in nucleus accumbens core tissue after i.p. dosing; type: in vivo, rats; conditions: for dopamine release at baseline: FIG. 8B; for dopamine release at baseline / dopamine uptake at baseline: naive rats, i.p. 30 min prior to sacrifice, PRX 0.25 mg/kg, SK608 4 mg/kg, SK609 4 mg/kg, vs saline; for dopamine uptake at baseline: FIG. 8C; for dopamine release after bath-applied cocaine: FIG. 8D; for dopamine release after bath-applied cocaine / inhibition of dopamine uptake by cocaine: same dosing, cocaine bath applied to tissue; for inhibition of dopamine uptake by cocaine: FIG. 8E
Method: (§4) (FIG. 3A) DA release, (FIG. 3B) DA uptake (Vmax), and (FIG. 3C) DAT sensitivity to cocaine (inhibition of DA uptake; app Km) following vehicle (Veh) or 4 mg/kg SK609.
Naive rats were injected intraperitoneally with saline (SAL), pramipexole (PRX; 0.25 mg/kg), SK608 (608; 4 mg/kg), or SK609 (609; 4 mg/kg) 30 min prior to sacrifice. […] (FIG. 8A) Example dopamine traces, (FIG. 8B) dopamine release and (FIG. 8C) dopamine uptake at baseline, (FIG. 8D) dopamine release and (FIG. 8E) inhibition of dopamine uptake. Data are mean±s.e.m.
as §4
Naive rats were injected intraperitoneally with saline (SAL), pramipexole (PRX; 0.25 mg/kg), SK608 (608; 4 mg/kg), or SK609 (609; 4 mg/kg) 30 min prior to sacrifice. […] (FIG. 8A) Example dopamine traces, (FIG. 8B) dopamine release and (FIG. 8C) dopamine uptake at baseline, (FIG. 8D) dopamine release and (FIG. 8E) inhibition of dopamine uptake. Data are mean s.e.m.

pDAT [2] = experiment: Time course densitometry of pDAT levels in SH-SY5Y-D3R cells; type: cell-based; conditions: PRX 5 nM, SK608 1 μM, SK609 1 μM; for pDAT levels, combined with / post cocaine (CC): FIG. 5B, cocaine 1 μM
Method: FIGS. 5A-5B illustrate that SK609 and its analogues reduce pDAT levels when pretreated with cocaine in a time dependent manner. Time course densitometry analysis of the effects of cocaine (1 μM), PRX (5 nM), SK608 (1 μM), and SK609 (1 μM) on pDAT levels in SH-SY5Y-D3R cells. Different groups of cells were pre-treated with (FIG. 5A) CC, PRX, SK609 and SK608 or (FIG. 5B) CC, CC/PRX, CC/SK609 and CC/SK608 and were collected at the time points indicated. pDAT levels were measured and GAPDH was used as loading control. Data are presented as mean±sd from three independent experiments performed in triplicate.

[3] = Self-administration of PRX or SK609 on fixed ratio 1 schedule before and after cocaine (FIG. 7)
Method: FIG. 7A: Rats were implanted with jugular catheters and then allowed to self-administer either pramipexole (PRX; 0.25 mg/kg) or SK609 (609; 4 mg/kg) on a 6-hr, fixed ratio 1 schedule of reinforcement (Pre-Cocaine; left gray shading). After 10 days of PRX or SK609 access, rats were switched to cocaine (0.75 mg/kg). Once rats acquired cocaine self-administration behavior (defined as 20 injections of cocaine within a single 6-session) they were allowed another two days of cocaine access (Cocaine; blue shading). Only the last 3 days of cocaine self-administration are plotted. After cocaine self-administration, rats were switched back to PRX and SK609 to assess if these compounds would now maintain reinforced responding (Post-Cocaine; right gray shading). […] Data are mean±s.e.m. Student's t-test. *p<0.05.
After 10 days of PRX or SK609 access, rats were switched to cocaine (0.75 mg/kg). Once rats acquired cocaine self-administration behavior (defined as 20 injections of cocaine within a single 6-session) they were allowed another two days of cocaine access (Cocaine; blue shading). Only the last 3 days of cocaine self-administration are plotted. After cocaine self-administration, rats were switched back to PRX and SK609 to assess if these compounds would now maintain reinforced responding (Post-Cocaine; right gray shading).
Data are mean±s.e.m. Student's t-test. *p<0.05.

[4] = in vivo; cited from earlier work
[5] = SK609 self-administration in rats (FIG. 1); type: in vivo; conditions: rats given access to 4 mg/kg SK609; comparison 0.75 mg/kg cocaine
Method: Shown are injections taken for rats given access to 4 mg/kg SK609 and 0.75 mg/kg cocaine. Dashed line represents acquisition criteria which required 4 consecutive days of 10 injections per session. Cocaine data are aligned to the first day in which rats met acquisition criteria. Data represent mean±s.e.m. *p<0.05, ***p<0.001.
Shown in FIG. 1 are injections taken for rats given access to 4 mg/kg SK609 and 0.75 mg/kg cocaine. Dashed line represents acquisition criteria which required 4 consecutive days of 10 injections per session. Cocaine data are aligned to the first day in which rats met acquisition criteria. Data represent mean s.e.m. *p<0.05, ***p<0.001.

[6] = Cocaine self-administration on Progressive Ratio (PR) schedule, motivation for cocaine; type: in vivo, rodent; conditions: i.p. 2 mg/kg or 4 mg/kg SK609
Method: FIGS. 2A-2B illustrate that SK609 reduces motivation for cocaine in a rodent self-administration model. […] (FIG. 2A) Breakpoints and (FIG. 2B) lever presses following i.p. vehicle, 2 mg/kg or 4 mg/kg SK609. Data are expressed as the mean±s.e.m., percent of baseline responding. *P<0.05.
(FIG. 2A) Breakpoints and (FIG. 2B) lever presses following i.p. vehicle, 2 mg/kg or 4 mg/kg SK609. Data are expressed as the mean±s.e.m., percent of baseline responding. *P<0.05.

pDAT [7] = experiment: Western blot / densitometry of pDAT in striatal synaptosomes of cocaine-treated rats; type: in vivo; conditions: cocaine 15 mg/kg pre-treatment, SK609 4 mg/kg
Method: (FIG. 4A) Representative western blots for pDAT, tDAT, D3R, βarr2 and GAPDH on striatal synaptosomes derived from rats treated with either saline (sal) or cocaine (CC) (15 mg/kg) or SK609 (4 mg/kg) or Pramipexole (PRX; (S)-N^6-propyl-4,5,6,7-tetrahydro-1,3-benzothiazole-2,6-diamine) (0.25 mg/kg) with and without cocaine pre-treatment. […] (FIG. 4B) Densitometry analysis of pDAT expression. Data are presented as mean s.e.m. from 3 independent experiments from n=3 rats/group. *p<0.05, **p<0.001.
(FIG. 4A) Representative western blots for pDAT, tDAT, D3βarr2 and GAPDH on striatal synaptosomes derived from rats treated with either saline (sal) or cocaine (CC) (15 mg/kg) or SK609 (4 mg/kg) or Pramipexole (PRX) (0.25 mg/kg) with and without cocaine pre-treatment. (FIG. 4B) Densitometry analysis of pDAT expression. Data are presented as mean±s.e.m. from 3 independent experiments from n=3 rats/group. *p<0.05, **p<0.001.

Row | SMILES | ERK1/2 phosphorylation induced by activation of D2 receptor (D2 receptor) | ERK1/2 phosphorylation induced by activation of D3 receptor (D3 receptor) | dopamine release at baseline [1] | dopamine uptake at baseline [1] | dopamine release after bath-applied cocaine [1] | inhibition of dopamine uptake by cocaine [1] | pDAT levels, compound on its own (pDAT [2]; FIG. 5A) | pDAT levels, combined with / post cocaine (CC) (pDAT [2]) | overall intake, post-cocaine ([3]; rat, in vivo) | cumulative intake, pre-cocaine ([3]; rat, in vivo, 10 days) | compulsive drug seeking behavior [4] | self-administration (injections taken) [5] | motivation for cocaine (breakpoints, lever presses) [6] | DA release ([1]; FIG. 3A, 4 mg/kg SK609 vs vehicle) | DA uptake (Vmax) ([1]; FIG. 3B, 4 mg/kg SK609 vs vehicle) | pDAT expression in striatal synaptosomes (pDAT [7]) | acquisition of self-administration of the compound (reinforcing effect) ([3]; FIG. 7A, 6-hr fixed ratio 1, PRX 0.25 mg/kg, SK609 4 mg/kg)
1 | CCCN1CCO[C@@H]2c3cc(O)ccc3OC[C@H]21 [PD128609, (4aR,10bR)-3,4a,4,10b-tetrahydro-4-propyl-2H,5H-[1]benzopyrano-[4,3-b]-1,4-oxazin-9-ol] | activated both D2 and D3 receptors | activated both D2 and D3 receptors |  |  |  |  |  |  |  |  |  |  |  |  |  |  | 
2 | CCCN[C@H]1CCc2nc(N)sc2C1 [PRX, (S)-N^6-propyl-4,5,6,7-tetrahydro-1,3-benzothiazole-2,6-diamine, reference compound] |  |  | no effect on DA release or uptake | no effect on DA release or uptake | had no effect | had no effect | significant increase in pDAT levels | significant increase in pDAT levels | sustained higher overall PRX intake compared to SK609 | higher cumulative intake of PRX compared to SK609 | producing compulsive drug seeking behavior |  |  |  |  |  | 
3 | CC(N)CCc1ccc(Cl)cc1 (stereo not drawn) [SK608, 4-(4-chlorophenyl)-butan-2-amine] |  |  | reduce DA release and uptake | reduce DA release and uptake | significantly reduced DA release and uptake inhibition by cocaine | significantly reduced DA release and uptake inhibition by cocaine |  | significantly reduced pDAT levels |  |  |  |  |  |  |  |  | 
4 | CC(N)CCc1ccccc1Cl (stereo not drawn) [SK609, 4-(2-chlorophenyl)-butan-2-amine] |  |  | reduce DA release and uptake | reduce DA release and uptake | significantly reduced DA release and uptake inhibition by cocaine | significantly reduced DA release and uptake inhibition by cocaine |  | significantly reduced pDAT levels |  |  |  | does not support self-administration | reduced motivation for cocaine | disrupts dopamine (DA) release and uptake | disrupts dopamine (DA) release and uptake | reduces expression of pDAT | not robust reinforcers
